According to patent publication US20230295106A1 (priority 2019, published 2023):
Like-named read-outs stand apart in the source and are kept apart here.

How the values were obtained:
rat cortical neurons = test: Neurite outgrowth in primary neuronal cultures assay; type: cell-based; design: key: A: Statistically significant mean increase as a percent of DMSO control at 10 μM or less; B: No statistically significant mean increase as a percent of DMSO control at 10 μM or less; conditions: 72 h, vs DMSO control, at 10 μM or less
Excerpt: Neurite Outgrowth in Primary Neuronal Cultures Assay. Changes in the pattern of neurite outgrowth have been implicated in psychiatric and neurodegenerative disorders as well as traumatic injuries. The discovery of new compounds that can positively affect neuritogenesis are important for developing new therapeutics for neurological diseases. Measurement of neurite outgrowth of rat cortical neurons using an automated image-based assay was used to determine the neuroplastic effects of the compounds of the present invention. The neurite outgrowth assay was performed at Neurofit SAS (France) as described below.
Pregnant Wistar rats (Janvier; France) were used for the study. They were delivered 6 days before their use. Upon arrival at Neurofit animal facility, they were housed one per cage and maintained in a room with controlled temperature (21-22° C.) and a reversed light-dark cycle (12 h/12 h; lights on: 17:30-05:30; lights off: 05:30-17:30) with food and water available ad libitum.
Female Wistar rats of 17 days gestation were killed by cervical dislocation and the fetuses were removed from the uterus. Their brains were placed in ice-cold medium of Leibovitz (L15, Gibco, Fisher bioblock, France). Cortices were dissected and meninges were carefully removed. The cortical neurons were dissociated by trypsinization for 30 min at 37° C. (trypsin-EDTA, Gibco) in presence of 0.1 mg/ml DNAse I (Roche, France). The reaction was stopped by addition of Dulbecco's Modified Eagle Medium (DMEM; Gibco) with 10% of fetal bovine serum (FBS; Gibco). The suspension was triturated with a 10-ml pipette and using a needle syringe 21 G and centrifuged at 350×g for 10 min at room temperature. The pellet of dissociated cells was resuspended in a medium consisting of Neurobasal (Gibco) supplemented with 2% B27 supplement (Gibco), 0.5 mM L-Glutamine (Gibco), an antibiotic-antimicotic mixture. Viable cells were counted in a Neubauer cytometer using the trypan blue exclusion test (Sigma). Cells were seeded at a density of 10000 cells per well in 96-well plate (Costar) precoated with poly-L-lysine. Test compound at different concentrations were added to the cultures. Donepezil (positive control) was tested at 250 nM.
After 72 h (3 days) of plating, cultures were fixed with paraformaldehyde in PBS (4%, Sigma) for 30 min at 4° C. Then, cells were successively permeabilized with 0.1% Triton X100 for 30 min, saturated with PBS containing 3% of BSA and were incubated 1 h with anti-beta III tubulin antibody (Sigma) at 1/10000 in PBS containing 0.5% of BSA. Cells were washed three times with PBS containing 0.5% of BSA, and they were incubated 1 h with goat anti-mouse antibody coupled with AF488 (Invitrogen A11001) diluted at 1/1000 in PBS containing 0.5% of BSA. Finally, nuclei were staining with DAPI 1 mg/ml at 1/1000 in PBS containing 0.5% of BSA. After rinsing with PBS, the plate was filmed and neurite networks were examined and analyzed using High-Content Screening (CellInsight, Thermo Scientific). The average number of neurites per neuron and the average total length of neurites per neuron were the main parameters analyzed. Analysis of data was performed using analysis of variance (ANOVA). The Fisher's Protected Least Significant Difference test was used for multiple comparisons. A p value <0.05 was considered significant. The software used is StatView 5.0 from SAS Institut.

5-HT2A [1] = target: T1, 5-HT2A (Homo sapiens, UniProt P28223); test: Serotonin 5-HT2A in vitro cellular IPOne agonism assay (HTRF); type: cell-based; design: host or cells: CHO-K1
5-HT2A [2] = target: T1, 5-HT2A; test: Serotonin 5-HT2A in vitro radioligand binding competition assay ([3H]-DOI); design: Epics Therapeutics S.A. (Belgium) FAST-0505B; host or cells: membrane extracts
[3] = 5-HT2A IPOne Agonism Activity, CHO-K1 cells, 60 min at 37° C.
[4] = 5-HT2A Radioligand Binding Activity, competition with [3H]-DOI, membrane extracts

T1 sequence (P28223 whole entry): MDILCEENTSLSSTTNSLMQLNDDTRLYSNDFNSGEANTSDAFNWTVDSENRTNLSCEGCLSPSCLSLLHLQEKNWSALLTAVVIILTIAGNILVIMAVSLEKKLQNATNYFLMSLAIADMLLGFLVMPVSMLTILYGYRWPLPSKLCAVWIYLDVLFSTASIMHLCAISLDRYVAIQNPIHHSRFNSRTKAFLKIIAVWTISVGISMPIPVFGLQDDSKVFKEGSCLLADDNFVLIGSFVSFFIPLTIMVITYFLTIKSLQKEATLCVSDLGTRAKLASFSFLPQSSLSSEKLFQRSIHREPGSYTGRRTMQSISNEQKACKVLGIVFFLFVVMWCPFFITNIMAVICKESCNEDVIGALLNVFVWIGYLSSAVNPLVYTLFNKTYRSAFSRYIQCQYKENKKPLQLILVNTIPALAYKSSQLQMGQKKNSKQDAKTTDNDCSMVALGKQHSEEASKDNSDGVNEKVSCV

| Structure (SMILES) | Increase in Neurite Length (rat cortical neurons) | Increase in Neurite Number (rat cortical neurons) | EC50 (5-HT2A [1]; [3]) [nM] | IC50 (5-HT2A [2]; [4]) [nM] | EC50 (5-HT2A [1]) [nM] | IC50 (5-HT2A [2]) [nM] | EC50 (5-HT2A [1]; read-out: 5-HT2A IPOne Agonism Activity, CHO-K1 cells, 60 min at 37° C.) [nM] | IC50 (5-HT2A [2]; read-out: 5-HT2A Radioligand Binding Activity, competition with [3H]-DOI, membrane extracts) [nM] |
| --- | --- | --- | --- | --- | --- | --- | --- | --- |
| CCN(CC)C(=O)[C@@H]1C=C(c2cc(OC)cc(OC)c2)CN(C)C1 (single isomer, unassigned) [Compound 5, 5-(3,5-dimethoxyphenyl)-N,N-diethyl-1-methyl-1,2,3,6-tetrahydropyridine-3-carboxamide] | A | A | 10 to 100 | 101 to 1000 | – | – | – | – |
| CCN(CC)C(=O)[C@@H]1C=C(c2cc(OC)cc(OC)c2)CN(C)C1 (single isomer, unassigned) [Compound 6, 5-(3,5-dimethoxyphenyl)-N,N-diethyl-1-methyl-1,2,3,6-tetrahydropyridine-3-carboxamide] | A | A | 101 to 1000 | 1000 to 10000 | – | – | – | – |
| CCN(CC)C(=O)[C@@H]1C=C(c2ccccc2OC)CN(C)C1 (single isomer, unassigned) [Compound 7, N,N-diethyl-5-(2-methoxyphenyl)-1-methyl-1,2,3,6-tetrahydropyridine-3-carboxamide] | B | B | 10 to 100 | 10 to 100 | – | – | – | – |
| CCN(CC)C(=O)[C@@H]1C=C(c2ccccc2OC)CN(C)C1 (single isomer, unassigned) [Compound 8, N,N-diethyl-5-(2-methoxyphenyl)-1-methyl-1,2,3,6-tetrahydropyridine-3-carboxamide] | A | A | 101 to 1000 | 101 to 1000 | – | – | – | – |
| CCN(CC)C(=O)[C@@H]1C=C(c2cccc(OC)c2)CN(C)C1 (single isomer, unassigned) [Compound 9, N,N-diethyl-5-(3-methoxyphenyl)-1-methyl-1,2,3,6-tetrahydropyridine-3-carboxamide] | A | A | 10 to 100 | 10 to 100 | – | – | – | – |
| CCN(CC)C(=O)[C@@H]1C=C(c2cccc(OC)c2)CN(C)C1 (single isomer, unassigned) [Compound 10, N,N-diethyl-5-(3-methoxyphenyl)-1-methyl-1,2,3,6-tetrahydropyridine-3-carboxamide] | A | A | 101 to 1000 | 101 to 1000 | – | – | – | – |
| CCN(CC)C(=O)[C@@H]1C=C(c2cccc3[nH]ccc23)CN(C)C1 (single isomer, unassigned) [Compound 11, N,N-diethyl-5-(1H-indol-4-yl)-1-methyl-1,2,3,6-tetrahydropyridine-3-carboxamide] | A | A | – | – | – | – | – | – |
| CCN(CC)C(=O)[C@@H]1C=C(c2cccc3[nH]ccc23)CN(C)C1 (single isomer, unassigned) [Compound 12, N,N-diethyl-5-(1H-indol-4-yl)-1-methyl-1,2,3,6-tetrahydropyridine-3-carboxamide] | A | A | – | – | – | – | – | – |
| CN(C)C1Cc2cccc3ccn(c23)C1 (single isomer, unassigned) [Compound 14, N,N-dimethyl-5,6-dihydro-4H-pyrrolo[3,2,1-ij]quinolin-5-amine] | A | A | – | – | > 10000 | 101 to 1000 | – | – |
| CN(C)C1Cc2cccc3ccn(c23)C1 (single isomer, unassigned) [Compound 15, N,N-dimethyl-5,6-dihydro-4H-pyrrolo[3,2,1-ij]quinolin-5-amine] | B | B | – | – | – | – | > 10000 | 101 to 1000 |
| NC1Cc2cccc3ccn(c23)C1 (stereo not shown) [Compound 13, 5,6-dihydro-4H-pyrrolo[3,2,1-ij]quinolin-5-amine] | A | A | – | – | > 10000 | 1000 to 10000 | – | – |
| CCN(CC)C1Cc2cccc3ccn(c23)C1 (stereo not shown) [Compound 16, N,N-diethyl-5,6-dihydro-4H-pyrrolo[3,2,1-]quinolin-5-amine] | A | A | – | – | 101 to 1000 | 101 to 1000 | – | – |
| NC1Cc2cc(F)cc3ccn(c23)C1 (stereo not shown) [Compound 17, 8-fluoro-5,6-dihydro-4H-pyrrolo[3,2,1-ij]quinolin-5-amine] | – | – | – | – | > 10000 | 1000 to 10000 | – | – |
| NC1Cc2c(F)ccc3ccn(c23)C1 (stereo not shown) [Compound 19, 7-fluoro-5,6-dihydro-4H-pyrrolo[3,2,1-ij]quinolin-5-amine] | – | – | – | – | > 10000 | > 10000 | – | – |
| NC1Cc2cc(Cl)cc3ccn(c23)C1 (stereo not shown) [Compound 21, 8-chloro-5,6-dihydro-4H-pyrrolo[3,2,1-ij]quinolin-5-amine] | – | – | – | – | 1000 to 10000 | 1000 to 10000 | – | – |
| NC1Cc2c(Cl)ccc3ccn(c23)C1 (stereo not shown) [Compound 23, 7-chloro-5,6-dihydro-4H-pyrrolo[3,2,1-ij]quinolin-5-amine] | – | – | – | – | 1000 to 10000 | 1000 to 10000 | – | – |
| COc1cc2c3c(ccn3CC(N)C2)c1 (stereo not shown) [Compound 25, 8-methoxy-5,6-dihydro-4H-pyrrolo[3,2,1-ij]quinolin-5-amine] | – | – | – | – | > 10000 | > 10000 | – | – |
| NC1Cc2cccc3[nH]cc(c23)C1 (stereo not shown) [Compound 27, 1,3,4,5-tetrahydrobenzo[cd]indol-4-amine] | A | A | – | – | 1000 to 10000 | 1000 to 10000 | – | – |
